Like-named read-outs stand apart in the source and are kept apart here.
Assays:
Type in all cases: cell-based
Conditions in all cases: drug at 4×MIC
[1] = system: A. baumannii - AYE
Protocol: (§1) 1. Grow bacteria overnight.
(§2) 2. Subculture into an autoclaved conical flask containing 10 ml of TSB to an OD of 0.01 (˜1×10^7 Cfu/ml for KP-M6).
(§3) 4. Take aliquots (100 μl) at timepoints (0, 1, 2, 4, 6, 24 hours) and carry out a serial dilution in PBS (to remove drug and to dilute bacteria to countable numbers).
(§4) 5. Use the serial dilution to perform a Miles Misra—i.e. Add 3×10 μl spots of each dilution onto an agar plate. Incubate overnight and count colonies on spots in the morning.
(§5) 6. Control: Subculture bacteria alongside samples but with no antibiotic added. Take aliquots from this at every time point (0, 1, 2, 4, 6, 24 hours) and perform Miles Misra on these too (as detailed in points 4 and 5 above).
(§6) 7. After the first experiment, if the counts seen on Miles-Misra were zero, total viable counts were determined by spreading 200 μl in a streak down the centre of a TSB agar plate, waiting for the liquid to be absorbed and then spreading over the plate and checking for growth inhibition at the sight of the original streak.
(§7) 8. The compound is considered bactericidal if the inoculum was reduced >3 log10 CFU/ml and bacteriostatic if inoculum was reduced by 0-3 log10 CFU/ml.
(§8) Three measurements were taken for each compound at each time point. These measurements were averaged and the standard deviation was also calculated.

[2] = system: A. baumannii - NCTC13424
Protocol: as §1, §2, §3, §4, §5, §6, §7, §8

[3] = system: K. pneumonia - NCTC 13368
Protocol: as §1, §2, §3, §4, §5, §6, §7, §8

[4] = system: K. pneumonia - NCTC 13438
Protocol: as §1, §2, §3, §4, §5, §6, §7, §8

In the case of COc1cc2c(cc1OCCCC(=O)Nc1cc(C(=O)Nc3ccc4sc(C(=O)N(C)C)cc4c3)n(C)c1)N=C[C@@H]1CCCN1C2=O [KMR-14-33, (S)—N-(2-(dimethylcarbamoyl)benzo[b]thiophen-5-yl)-4-(4-((7-methoxy-5-oxo-2,3,5,11a-tetrahydro-1H-benzo[e]pyrrolo[1,2-a][1,4]-diazepin-8-yl)oxy)butanamido)-1-methyl-1H-pyrrole-2-carboxamide], the “Average (Log CFU/ml)” value ([1]; time-point 1 hours) is reported as 0 CFU/ml, the “n = 1 (Log CFU/ml)” value ([1]; time-point 1 hours) is reported as 0 CFU/ml and the “n = 2 (Log CFU/ml)” value ([1]; time-point 1 hours) is reported as 0 CFU/ml. For the same molecule, the “n = 3 (Log CFU/ml)” value ([1]; time-point 1 hours) was 0 CFU/ml, the “Average (Log CFU/ml)” value ([1]; time-point 2 hours) was 0 CFU/ml and the “n = 1 (Log CFU/ml)” value ([1]; time-point 2 hours) was 0 CFU/ml. The “n = 2 (Log CFU/ml)” value ([1]; time-point 2 hours) was 0 CFU/ml, the “n = 3 (Log CFU/ml)” value ([1]; time-point 2 hours) was 0 CFU/ml and the “Average (Log CFU/ml)” value ([1]; time-point 4 hours) was 29 CFU/ml. The “n = 1 (Log CFU/ml)” value ([1]; time-point 4 hours) was 0 CFU/ml, the “n = 2 (Log CFU/ml)” value ([1]; time-point 4 hours) was 0 CFU/ml and the “n = 3 (Log CFU/ml)” value ([1]; time-point 4 hours) was 85 CFU/ml. The “Average (Log CFU/ml)” value ([1]; time-point 6 hours) was 1334 CFU/ml, the “n = 1 (Log CFU/ml)” value ([1]; time-point 6 hours) was 0 CFU/ml and the “n = 2 (Log CFU/ml)” value ([1]; time-point 6 hours) was 0 CFU/ml. For the same molecule, the “n = 3 (Log CFU/ml)” value ([1]; time-point 6 hours) was 4000 CFU/ml, the “Average (Log CFU/ml)” value ([1]; time-point 24 hours) was 6667.333 CFU/ml and the “n = 1 (Log CFU/ml)” value ([1]; time-point 24 hours) was 0 CFU/ml. For the same molecule, the “n = 2 (Log CFU/ml)” value ([1]; time-point 24 hours) was 20000 CFU/ml, the “n = 3 (Log CFU/ml)” value ([1]; time-point 24 hours) was 0 CFU/ml and the “Average (Log CFU/ml)” value ([2]; time-point 1 hours) was 1923.667 Log CFU/ml. For the same molecule, the “n = 1 (Log CFU/ml)” value ([2]; time-point 1 hours) was 0 Log CFU/ml, the n = 2 (CFU/ml) ([2]; time-point 1 hours) was 940 CFU/ml and the n = 3 (CFU/mL) ([2]; time-point 1 hours) was 4830 CFU/mL. For the same molecule, the “Average (Log CFU/ml)” value ([2]; time-point 2 hours) was 0 Log CFU/ml, the “n = 1 (Log CFU/ml)” value ([2]; time-point 2 hours) was 0 Log CFU/ml and the “n = 2 (Log CFU/ml)” value ([2]; time-point 2 hours) was 0 Log CFU/ml. The “n = 3 (Log CFU/ml)” value ([2]; time-point 2 hours) was 0 Log CFU/ml, the “Average (Log CFU/ml)” value ([2]; time-point 4 hours) was 0 Log CFU/ml and the “n = 1 (Log CFU/ml)” value ([2]; time-point 4 hours) was 0 Log CFU/ml. For the same molecule, the “n = 2 (Log CFU/ml)” value ([2]; time-point 4 hours) was 0 Log CFU/ml, the “n = 3 (Log CFU/ml)” value ([2]; time-point 4 hours) was 0 Log CFU/ml and the “Average (Log CFU/ml)” value ([2]; time-point 6 hours) was 0 Log CFU/ml. The “n = 1 (Log CFU/ml)” value ([2]; time-point 6 hours) was 0 Log CFU/ml, the “n = 2 (Log CFU/ml)” value ([2]; time-point 6 hours) was 0 Log CFU/ml and the “n = 3 (Log CFU/ml)” value ([2]; time-point 6 hours) was 0 Log CFU/ml. The “Average (Log CFU/ml)” value ([2]; time-point 24 hours) was 2084 Log CFU/ml, the n = 1 (CFU/mL) ([2]; time-point 24 hours) was 6250 CFU/mL and the “n = 2 (Log CFU/ml)” value ([2]; time-point 24 hours) was 0 Log CFU/ml. The “n = 3 (Log CFU/ml)” value ([2]; time-point 24 hours) was 0 Log CFU/ml, the “Average (Log CFU/ml)” value ([3]; time-point 1 hours) was 18850000 CFU/ml and the “n = 2 (Log CFU/ml)” value ([3]; time-point 1 hours) was 36000000 CFU/ml. For the same molecule, the viable count ([3]; time-point 1 hours) was 1.7e+06 CFU/mL, the Average (CFU/ml) ([3]; time-point 2 hours) was 505000 CFU/ml and the “n = 2 (Log CFU/ml)” value ([3]; time-point 2 hours) was 900000 CFU/ml. For the same molecule, the viable count ([3]; time-point 2 hours) was 110000 CFU/mL, the Average (CFU/ml) ([3]; time-point 4 hours) was 0 CFU/ml and the n = 2 (CFU/ml) ([3]; time-point 4 hours) was 0 CFU/ml. The viable count ([3]; time-point 4 hours) was 0 CFU/mL, the Average (CFU/ml) ([3]; time-point 6 hours) was 0 CFU/ml and the n = 2 (CFU/ml) ([3]; time-point 6 hours) was 0 CFU/ml. The viable count ([3]; time-point 6 hours) was 0 CFU/mL, the Average (CFU/ml) ([3]; time-point 24 hours) was 0 CFU/ml and the n = 2 (CFU/ml) ([3]; time-point 24 hours) was 0 CFU/ml. For the same molecule, the viable count ([3]; time-point 24 hours) was 0 CFU/mL, the “Average (Log CFU/ml)” value ([4]; time-point 1 hours) was 1000000 CFU/ml and the “n = 1 (Log CFU/ml)” value ([4]; time-point 1 hours) was 1000000 CFU/ml. For the same molecule, the “n = 2 (Log CFU/ml)” value ([4]; time-point 1 hours) was 2000000 CFU/ml, the “n = 3 (Log CFU/ml)” value ([4]; time-point 1 hours) was 1 CFU/ml and the “Average (Log CFU/ml)” value ([4]; time-point 2 hours) was 34 CFU/ml. The “n = 1 (Log CFU/ml)” value ([4]; time-point 2 hours) was 0 CFU/ml, the “n = 2 (Log CFU/ml)” value ([4]; time-point 2 hours) was 100 CFU/ml and the “n = 3 (Log CFU/ml)” value ([4]; time-point 2 hours) was 0 CFU/ml. The “Average (Log CFU/ml)” value ([4]; time-point 4 hours) was 0 CFU/ml, the “n = 1 (Log CFU/ml)” value ([4]; time-point 4 hours) was 0 CFU/ml and the “n = 2 (Log CFU/ml)” value ([4]; time-point 4 hours) was 0 CFU/ml. The “n = 3 (Log CFU/ml)” value ([4]; time-point 4 hours) was 0 CFU/ml, the “Average (Log CFU/ml)” value ([4]; time-point 6 hours) was 0 CFU/ml and the “n = 1 (Log CFU/ml)” value ([4]; time-point 6 hours) was 0 CFU/ml. For the same molecule, the “n = 2 (Log CFU/ml)” value ([4]; time-point 6 hours) was 0 CFU/ml, the “n = 3 (Log CFU/ml)” value ([4]; time-point 6 hours) was 0 CFU/ml and the “Average (Log CFU/ml)” value ([4]; time-point 24 hours) was 0 CFU/ml. The “n = 1 (Log CFU/ml)” value ([4]; time-point 24 hours) was 0 CFU/ml, the “n = 2 (Log CFU/ml)” value ([4]; time-point 24 hours) was 0 CFU/ml and the “n = 3 (Log CFU/ml)” value ([4]; time-point 24 hours) was 0 CFU/ml.

From patent US10640507B2, “PBD antibacterial agents” (KING'S COLLEGE LONDON, priority 2015, dated 2020)
